Measurements reported in the OligoGym collection.
Values joined by “and” are separate entries in the source; they are usually repeats but may differ in a detail not shown here. Equal values may be shown once. HELM strings list units from the 5' end as sugar, base in round brackets, then linkage (d deoxyribose, r ribose, m 2'-O-methyl, p phosphodiester). Strings are as the collection lists them, not checked against the first reports. ss, as = sense and antisense strand; [hna] = hexitol nucleic acid; [s4r] = 4'-thioribose; [fl2r] = 2'-fluoro

Conditions: siRNA
Also: test system not given here.

Substance	target mRNA knockdown
RNA1{[fl2r](G)p.r(G)p.[fl2r](A)p.r(A)p.[fl2r](G)p.r(A)p.[fl2r](A)p.r(G)p.[fl2r](A)p.r(U)p.[fl2r](A)p.r(G)p.[fl2r](A)p.r(G)p.[fl2r](C)p.r(A)p.[fl2r](U)p.r(C)p.[fl2r](C)p.r(T)p.r(T)}|RNA2{r(G)p.r(G)p.r(A)p.[fl2r](U)p.r(G)p.r(C)p.r(U)p.r(C)p.[fl2r](U)p.r(A)p.r(U)p.r(C)p.r(U)p.r(U)p.r(C)p.r(U)p.r(U)p.r(C)p.r(C)p.r(T)p.r(T)}$$$RNA1{StrandType:ss}|RNA2{StrandType:as}$	13%
RNA1{r(G)p.r(A)p.r(C)p.r(G)p.[hna](U)p.r(A)p.r(A)p.[hna](A)p.r(C)p.r(G)p.[hna](G)p.r(C)p.r(C)p.[hna](A)p.r(C)p.r(A)p.r(A)p.r(G)p.[hna](U)p.[hna](U)p.d(T)}|RNA2{r(A)p.m(C)p.r(U)p.r(U)p.r(G)p.r(U)p.r(G)p.r(G)p.r(C)p.r(C)p.r(G)p.r(U)p.r(U)p.r(U)p.r(A)p.r(C)p.r(G)p.r(U)p.r(C)p.r(G)p.r(C)}$$$RNA1{StrandType:ss}|RNA2{StrandType:as}$	44.7%
RNA1{r(C)p.m(U)p.r(A)p.r(G)p.r(U)p.r(C)p.r(G)p.r(A)p.r(A)p.r(A)p.r(G)p.r(A)p.r(A)p.r(A)p.r(A)p.r(C)p.r(G)p.r(G)p.r(G)p.r(T)p.r(T)}|RNA2{r(C)p.r(C)p.r(C)p.r(G)p.r(U)p.r(U)p.r(U)p.r(U)p.r(C)p.r(U)p.r(U)p.r(U)p.r(C)p.r(G)p.r(A)p.r(C)p.m(U)p.r(A)p.r(G)p.r(T)p.r(T)}$$$RNA1{StrandType:ss}|RNA2{StrandType:as}$	56%
RNA1{r(G)p.r(A)p.r(G)p.r(G)p.r(A)p.r(U)p.r(G)p.r(G)p.r(A)p.r(U)p.r(U)p.r(C)p.r(G)p.r(A)p.r(C)p.r(U)p.r(U)p.r(A)p.r(G)p.r(T)p.r(T)}|RNA2{r(C)p.m(U)p.r(A)p.r(A)p.r(G)p.r(U)p.r(C)p.r(G)p.r(A)p.r(A)p.r(U)p.r(C)p.r(C)p.r(A)p.r(U)p.r(C)p.r(C)p.r(U)p.r(C)p.r(T)p.r(T)}$$$RNA1{StrandType:ss}|RNA2{StrandType:as}$	94%
RNA1{r(C)p.r(U)p.r(C)p.r(C)p.r(G)p.r(A)p.r(C)p.r(A)p.r(G)p.r(A)p.m(U)p.r(G)p.r(A)p.r(A)p.r(G)p.r(G)p.r(A)p.r(A)p.r(A)p.r(T)p.r(T)}|RNA2{r(U)p.r(U)p.r(U)p.r(C)p.r(C)p.r(U)p.r(U)p.r(C)p.r(A)p.r(U)p.r(C)p.m(U)p.r(G)p.r(U)p.r(C)p.r(G)p.r(G)p.r(A)p.r(G)p.r(T)p.r(T)}$$$RNA1{StrandType:ss}|RNA2{StrandType:as}$	72%
RNA1{m(G)p.r(C)p.m(A)p.r(A)p.m(G)p.r(U)p.m(G)p.r(G)p.m(C)p.r(A)p.m(A)p.r(G)p.m(A)p.r(G)p.m(G)p.r(A)p.m(U)p.r(U)p.r(A)p.r(T)p.r(T)}|RNA2{r(U)p.r(A)p.r(A)p.r(U)p.r(C)p.r(C)p.r(U)p.r(C)p.r(U)p.r(U)p.r(G)p.r(C)p.r(C)p.r(A)p.r(C)p.r(U)p.r(U)p.r(G)p.r(C)p.r(T)p.r(T)}$$$RNA1{StrandType:ss}|RNA2{StrandType:as}$	55%
RNA1{r(G)p.r(A)p.m(U)p.r(A)p.r(C)p.r(U)p.r(U)p.r(C)p.m(U)p.r(G)p.r(G)p.r(U)p.r(U)p.r(C)p.r(C)p.r(C)p.r(U)p.r(C)p.r(C)p.r(T)p.r(T)}|RNA2{r(G)p.r(G)p.r(A)p.r(G)p.r(G)p.r(G)p.r(A)p.r(A)p.r(C)p.m(C)p.r(A)p.r(G)p.r(A)p.r(A)p.r(G)p.m(U)p.r(A)p.r(U)p.r(C)p.r(T)p.r(T)}$$$RNA1{StrandType:ss}|RNA2{StrandType:as}$	45%
RNA1{r(C)p.[fl2r](U)p.r(A)p.[fl2r](A)p.r(G)p.[fl2r](C)p.r(C)p.[fl2r](U)p.r(G)p.[fl2r](U)p.r(U)p.[fl2r](U)p.r(C)p.[fl2r](U)p.r(U)p.[fl2r](C)p.r(C)p.[fl2r](U)p.r(C)p.r(T)p.r(T)}|RNA2{r(G)p.[fl2r](A)p.r(G)p.r(G)p.[fl2r](A)p.[fl2r](A)p.r(G)p.[fl2r](A)p.[fl2r](A)p.[fl2r](A)p.r(C)p.[fl2r](A)p.r(G)p.r(G)p.r(C)p.r(U)p.r(U)p.[fl2r](A)p.r(G)p.r(T)p.r(T)}$$$RNA1{StrandType:ss}|RNA2{StrandType:as}$	75%
RNA1{[s4r](C)p.[s4r](G)p.[s4r](U)p.[s4r](A)p.r(C)p.r(G)p.r(C)p.r(G)p.r(G)p.r(A)p.r(A)p.r(U)p.r(A)p.r(C)p.r(U)p.[s4r](U)p.[s4r](C)p.[s4r](G)p.[s4r](A)p.r(T)p.r(T)}|RNA2{[s4r](U)p.[s4r](C)p.r(G)p.r(A)p.r(A)p.r(G)p.r(U)p.r(A)p.r(U)p.r(U)p.r(C)p.r(C)p.r(G)p.r(C)p.r(G)p.r(U)p.r(A)p.[s4r](C)p.[s4r](G)p.r(T)p.r(T)}$$$RNA1{StrandType:ss}|RNA2{StrandType:as}$	87.7%
RNA1{r(A)p.r(A)p.m(U)p.r(A)p.r(A)p.r(G)p.r(C)p.r(A)p.r(G)p.r(C)p.r(U)p.r(C)p.r(G)p.r(C)p.r(G)p.r(C)p.r(U)p.r(C)p.r(C)p.r(T)p.r(T)}|RNA2{r(G)p.r(G)p.r(A)p.r(G)p.r(C)p.r(G)p.r(C)p.r(G)p.r(A)p.r(G)p.r(C)p.r(U)p.r(G)p.r(C)p.r(U)p.m(U)p.r(A)p.r(U)p.r(U)p.r(T)p.r(T)}$$$RNA1{StrandType:ss}|RNA2{StrandType:as}$	69%
RNA1{r(A)p.r(A)p.r(A)p.r(C)p.r(C)p.r(C)p.r(C)p.m(U)p.r(A)p.r(G)p.r(A)p.r(G)p.r(G)p.r(G)p.m(C)p.r(A)p.r(A)p.r(G)p.r(U)p.r(T)p.r(T)}|RNA2{r(A)p.r(C)p.r(U)p.m(U)p.r(G)p.r(C)p.r(C)p.r(C)p.r(U)p.r(C)p.m(U)p.r(A)p.r(G)p.r(G)p.r(G)p.r(G)p.r(U)p.r(U)p.r(U)p.r(T)p.r(T)}$$$RNA1{StrandType:ss}|RNA2{StrandType:as}$	78%
RNA1{m(U)p.r(U)p.m(A)p.r(C)p.m(A)p.r(A)p.m(A)p.r(G)p.m(G)p.r(A)p.m(U)p.r(C)p.m(U)p.r(C)p.m(C)p.r(U)p.m(C)p.r(C)p.m(C)p.r(T)p.r(T)}|RNA2{r(G)p.r(G)p.r(G)p.m(A)p.r(G)p.r(G)p.m(A)p.r(G)p.m(A)p.r(U)p.r(C)p.r(C)p.r(U)p.r(U)p.r(U)p.r(G)p.r(U)p.m(A)p.m(A)p.r(T)p.r(T)}$$$RNA1{StrandType:ss}|RNA2{StrandType:as}$	51%
RNA1{r(G)p.r(U)p.r(G)p.r(A)p.r(A)p.r(G)p.r(U)p.r(C)p.r(A)p.r(A)p.r(C)p.r(A)p.r(U)p.r(G)p.r(C)p.r(C)p.r(U)p.r(G)p.r(C)p.d(T)p.d(T)}|RNA2{r(G)p.r(C)p.r(A)p.r(G)p.r(G)p.r(C)p.r(A)p.r(U)p.r(G)p.r(U)p.r(U)p.r(G)p.r(A)p.r(C)p.r(U)p.r(U)p.r(C)p.r(A)p.r(C)p.d(T)p.d(T)}$$$RNA1{StrandType:ss}|RNA2{StrandType:as}$	50% and 70%
RNA1{r(G)p.r(A)p.m(U)p.r(A)p.r(G)p.r(G)p.r(A)p.r(A)p.r(G)p.r(G)p.r(G)p.r(G)p.r(C)p.r(U)p.r(U)p.r(C)p.r(A)p.r(G)p.r(C)p.r(T)p.r(T)}|RNA2{r(G)p.r(C)p.r(U)p.r(G)p.r(A)p.r(A)p.r(G)p.r(C)p.r(C)p.r(C)p.r(C)p.r(U)p.r(U)p.r(C)p.r(C)p.m(U)p.m(A)p.r(U)p.r(C)p.r(T)p.r(T)}$$$RNA1{StrandType:ss}|RNA2{StrandType:as}$	41%
RNA1{r(A)p.r(A)p.r(G)p.r(G)p.r(A)p.r(G)p.r(A)p.r(U)p.r(C)p.r(A)p.r(A)p.r(C)p.r(A)p.r(U)p.r(U)p.r(U)p.m(U)p.m(C)p.m(A)p.r(T)p.r(T)}|RNA2{r(U)p.r(G)p.r(A)p.r(A)p.r(A)p.r(A)p.r(U)p.r(G)p.r(U)p.r(U)p.r(G)p.r(A)p.r(U)p.r(C)p.r(U)p.r(C)p.m(C)p.m(U)p.m(U)p.r(T)p.r(T)}$$$RNA1{StrandType:ss}|RNA2{StrandType:as}$	73%
RNA1{r(A)p.r(G)p.r(C)p.r(C)p.r(U)p.r(C)p.r(C)p.r(A)p.r(A)p.r(A)p.r(C)p.r(U)p.r(C)p.r(C)p.r(U)p.r(A)p.r(G)p.r(C)p.r(U)p.r(T)p.r(T)}|RNA2{r(A)p.r(G)p.r(C)p.m(U)p.r(A)p.r(G)p.r(G)p.r(A)p.r(G)p.r(U)p.r(U)p.m(U)p.r(G)p.r(G)p.r(A)p.r(G)p.r(G)p.r(C)p.r(U)p.r(T)p.r(T)}$$$RNA1{StrandType:ss}|RNA2{StrandType:as}$	70%
RNA1{[fl2r](A)p.r(C)p.[fl2r](C)p.r(U)p.[fl2r](U)p.r(A)p.[fl2r](A)p.r(G)p.[fl2r](G)p.r(A)p.[fl2r](C)p.r(C)p.[fl2r](A)p.r(C)p.[fl2r](C)p.r(G)p.[fl2r](G)p.r(A)p.[fl2r](U)p.r(T)p.r(T)}|RNA2{[fl2r](A)p.r(U)p.r(C)p.r(C)p.r(G)p.r(G)p.r(U)p.r(G)p.r(G)p.r(U)p.r(C)p.r(C)p.r(U)p.r(U)p.[fl2r](A)p.[fl2r](A)p.r(G)p.r(G)p.r(U)p.r(T)p.r(T)}$$$RNA1{StrandType:ss}|RNA2{StrandType:as}$	41%
RNA1{r(U)p.r(C)p.r(C)p.m(U)p.r(A)p.r(G)p.r(C)p.r(U)p.r(G)p.r(U)p.r(C)p.r(U)p.r(U)p.r(G)p.r(U)p.r(C)p.r(C)p.r(C)p.r(U)p.r(T)p.r(T)}|RNA2{r(A)p.r(G)p.r(G)p.r(G)p.r(A)p.r(C)p.r(A)p.r(A)p.r(G)p.r(A)p.r(C)p.r(A)p.r(G)p.r(C)p.m(U)p.r(A)p.r(G)p.r(G)p.r(A)p.r(T)p.r(T)}$$$RNA1{StrandType:ss}|RNA2{StrandType:as}$	71%
RNA1{m(A)p.r(C)p.m(G)p.r(U)p.m(C)p.r(A)p.m(C)p.r(C)p.m(G)p.r(A)p.m(G)p.r(G)p.m(A)p.r(G)p.m(A)p.r(A)p.m(G)p.r(U)p.m(A)p.r(T)p.r(T)}|RNA2{r(U)p.r(A)p.r(C)p.r(U)p.r(U)p.r(C)p.r(U)p.r(C)p.r(C)p.r(U)p.r(C)p.m(G)p.m(G)p.r(U)p.r(G)p.r(A)p.r(C)p.m(G)p.r(U)p.r(T)p.r(T)}$$$RNA1{StrandType:ss}|RNA2{StrandType:as}$	31%
RNA1{r(G)p.[fl2r](A)p.r(A)p.r(A)p.[fl2r](C)p.[fl2r](U)p.r(G)p.r(G)p.[fl2r](U)p.[fl2r](A)p.[fl2r](C)p.[fl2r](U)p.[fl2r](U)p.[fl2r](U)p.[fl2r](C)p.[fl2r](C)p.[fl2r](C)p.[fl2r](C)p.[fl2r](C)p.r(T)p.r(T)}|RNA2{r(G)p.r(G)p.r(G)p.r(G)p.r(G)p.r(A)p.r(A)p.r(A)p.r(G)p.r(U)p.r(A)p.r(C)p.r(C)p.r(A)p.r(G)p.r(U)p.r(U)p.r(U)p.r(C)p.r(T)p.r(T)}$$$RNA1{StrandType:ss}|RNA2{StrandType:as}$	60%
